According to patent US11053204B2, “Pyrimidinyloxy benzene derivatives as herbicides” (FMC Corporation, priority 2015, dated 2021):

How the values were obtained:
Type in all cases: in vivo
[1] = test system: pigweed (Amaranthus retroflexus); test: Test A preemergence, visual injury rating
Outline: (§1)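 Compounds in non-phytotoxic solvent with surfactant applied as soil spray preemergence, or postemergence to plants 2-10 cm at one- to two-leaf stage, in loam/sand. After approximately 10 days in greenhouse, injury rated visually versus untreated controls, 0 (no effect) to 100 (complete control).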

[2] = test system: kochia (Kochia scoparia); test: Test A preemergence, visual injury rating
Outline: as §1

[3] = test system: sedge, umbrella (small-flower umbrella sedge, Cyperus difformis); test: Test B flooded paddy test, plant response rating; details: Cyperus difformis, 312 h; 250 g ai/ha; Flood; scale of 0 to 100 where 0 is no effect and 100 is complete control; 13 to 15 days
Outline: (§2)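 Pots were flooded to 3 cm above the soil surface at treatment, compound applied directly to the paddy water, and that depth held throughout. Plants were kept in a greenhouse for 13 to 15 days, then visually rated against untreated controls.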

[4] = test system: rice (Oryza sativa); test: Test B flooded paddy test, plant response rating; details: Oryza sativa, 312 h; 250 g ai/ha; Flood; scale of 0 to 100 where 0 is no effect and 100 is complete control; 13 to 15 days
Outline: as §2

[5] = test system: barnyardgrass (Echinochloa crus-galli); test: Test B flooded paddy test, plant response rating; details: Echinochloa crus-galli, 312 h; 250 g ai/ha; Flood; scale of 0 to 100 where 0 is no effect and 100 is complete control; 13 to 15 days
Outline: as §2

[6] = test system: ducksalad (Heteranthera limosa); test: Test B flooded paddy test, plant response rating; details: Heteranthera limosa, 312 h; 250 g ai/ha; Flood; scale of 0 to 100 where 0 is no effect and 100 is complete control; 13 to 15 days
Outline: as §2

[7] = test system: kochia (Kochia scoparia); test: Test C postemergence, plant response rating; details: Bassia scoparia, post-emergence
Outline: (§3)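 Visual injury score, 0 = no effect, 100 = complete control, assigned against untreated controls after 13 to 15 d in the greenhouse. Compounds were applied in a surfactant-containing non-phytotoxic solvent mix, preemergence to seeded loam/sand or silt loam soil, or postemergence to 1- to 4-leaf plants (2 to 18 cm).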

[8] = test system: morningglory (Ipomoea coccinea); test: Test C postemergence, plant response rating; details: Ipomoea, post-emergence
Outline: as §3

[9] = test system: chickweed (common chickweed, Stellaria media); test: Test C postemergence, plant response rating; details: Stellaria media, post-emergence
Outline: as §3

[10] = test system: corn (Zea mays); test: Test A postemergence, visual injury rating; details: 0 to 100 scale, 0 is no effect, 100 is complete control, approximately 10 days
Outline: as §1

[11] = test system: pigweed (Amaranthus retroflexus); test: Test A postemergence, visual injury rating; details: 0 to 100 scale, 0 is no effect, 100 is complete control, approximately 10 days
Outline: as §1

[12] = test system: kochia (Kochia scoparia); test: Test A postemergence, visual injury rating; details: 0 to 100 scale, 0 is no effect, 100 is complete control, approximately 10 days
Outline: as §1

[13] = test system: giant foxtail (Setaria faberii); test: Test A postemergence, visual injury rating; details: 0 to 100 scale, 0 is no effect, 100 is complete control, approximately 10 days
Outline: as §1

[14] = test system: blackgrass (Alopecurus myosuroides); test: Test A postemergence, visual injury rating; details: 0 to 100 scale, 0 is no effect, 100 is complete control, approximately 10 days
Outline: as §1

[15] = test system: wheat (Triticum aestivum); test: Test A postemergence, visual injury rating; details: 0 to 100 scale, 0 is no effect, 100 is complete control, approximately 10 days
Outline: as §1

[16] = test system: barnyardgrass (Echinochloa crus-galli); test: Test A postemergence, visual injury rating; details: 0 to 100 scale, 0 is no effect, 100 is complete control, approximately 10 days
Outline: as §1

[17] = test system: ragweed (common ragweed, Ambrosia elatior); test: Test A postemergence, visual injury rating; details: 0 to 100 scale, 0 is no effect, 100 is complete control, approximately 10 days
Outline: as §1

[18] = test system: Italian ryegrass (Lolium multiflorum); test: Test A postemergence, visual injury rating; details: 0 to 100 scale, 0 is no effect, 100 is complete control, approximately 10 days
Outline: as §1

[19] = test system: galium (catchweed bedstraw, Galium aparine); test: Test A postemergence, visual injury rating; details: 0 to 100 scale, 0 is no effect, 100 is complete control, approximately 10 days
Outline: as §1

[20] = 31 g ai/ha, 0 to 100 scale, 0 no effect, 100 complete control
[21] = 125 g ai/ha, 0 to 100 scale (0 no effect, 100 complete control)
[22] = 62 g ai/ha, scale 0 to 100 (0 no effect, 100 complete control)
[23] = 125 g ai/ha, scale 0 to 100 (0 no effect, 100 complete control)

**Q.** For `O=C(CCC(F)(F)F)c1c(Cl)cccc1Oc1ncc(Cl)cn1` [Compound 107, 1-[2-chloro-6-[(5-chloro-2-pyrimidinyl)oxy]phenyl]-4,4,4-trifluoro-1-butanone], which “Plant response rating, Pigweed” value [1, 20] is on record?
**A.** Its value is 100.

**Q.** And the “Plant response rating, Pigweed” value [1, 21]?
**A.** Its value is 100.

**Q.** And the “Plant response rating, Kochia” value [2, 20]?
**A.** Its value is 90.

**Q.** What about the “Plant response rating, Kochia” value [2, 21] of the same compound?
**A.** The value was 100.

**Q.** What about the pest or weed control at 250 g/ha [3] of the same compound?
**A.** Its pest or weed control at 250 g/ha is 95%.

**Q.** What about the plant injury at 250 g/ha [4] of the same compound?
**A.** The plant injury at 250 g/ha was 35%.

**Q.** And the pest or weed control at 250 g/ha [5]?
**A.** Its pest or weed control at 250 g/ha is 50%.

**Q.** What about the pest or weed control at 250 g/ha [6] of the same compound?
**A.** The pest or weed control at 250 g/ha was 95%.

**Q.** And the pest or weed control at 16 g/ha ([7]; 16 g ai/ha, scale of 0 to 100)?
**A.** Its pest or weed control at 16 g/ha is 80%.

**Q.** What about the pest or weed control at 31 g/ha ([7]; 31 g ai/ha, scale 0 to 100) of the same compound?
**A.** The pest or weed control at 31 g/ha was 85%.

**Q.** What about the pest or weed control at 62 g/ha [7, 22] of the same compound?
**A.** Its pest or weed control at 62 g/ha is 95%.

**Q.** And the pest or weed control at 125 g/ha [7, 23]?
**A.** Its pest or weed control at 125 g/ha is 98%.

**Q.** What about the pest or weed control at 16 g/ha ([8]; 16 g ai/ha, scale of 0 to 100) of the same compound?
**A.** Its pest or weed control at 16 g/ha is 20%.

**Q.** What about the pest or weed control at 31 g/ha ([8]; 31 g ai/ha, scale 0 to 100) of the same compound?
**A.** The pest or weed control at 31 g/ha was 60%.

**Q.** And the pest or weed control at 62 g/ha [8, 22]?
**A.** The pest or weed control at 62 g/ha was 80%.

**Q.** And the pest or weed control at 125 g/ha [8, 23]?
**A.** The pest or weed control at 125 g/ha was 95%.

**Q.** What about the pest or weed control at 16 g/ha ([9]; 16 g ai/ha, scale of 0 to 100) of the same compound?
**A.** The pest or weed control at 16 g/ha was 80%.

**Q.** What about the pest or weed control at 31 g/ha ([9]; 31 g ai/ha, scale 0 to 100) of the same compound?
**A.** The pest or weed control at 31 g/ha was 90%.

**Q.** And the pest or weed control at 62 g/ha [9, 22]?
**A.** The pest or weed control at 62 g/ha was 98%.

**Q.** And the pest or weed control at 125 g/ha [9, 23]?
**A.** Its pest or weed control at 125 g/ha is 100%.

**Q.** And the “Corn plant response rating” value ([10]; 31 g ai/ha)?
**A.** Its value is 30.

**Q.** And the “Corn plant response rating” value ([10]; 125 g ai/ha)?
**A.** Its value is 60.

**Q.** What about the “Pigweed plant response rating” value ([11]; 31 g ai/ha) of the same compound?
**A.** Its value is 100.

**Q.** And the “Pigweed plant response rating” value ([11]; 125 g ai/ha)?
**A.** Its value is 100.

**Q.** And the “Kochia plant response rating” value ([12]; 31 g ai/ha)?
**A.** Its value is 90.

**Q.** And the “Kochia plant response rating” value ([12]; 125 g ai/ha)?
**A.** The value was 90.

**Q.** What about the “Foxtail, Giant plant response rating” value ([13]; 31 g ai/ha) of the same compound?
**A.** Its value is 70.

**Q.** And the “Foxtail, Giant plant response rating” value ([13]; 125 g ai/ha)?
**A.** The value was 90.

**Q.** And the “Blackgrass plant response rating” value ([14]; 31 g ai/ha)?
**A.** The value was 50.

**Q.** And the “Blackgrass plant response rating” value ([14]; 125 g ai/ha)?
**A.** Its value is 90.

**Q.** And the “Wheat plant response rating” value ([15]; 31 g ai/ha)?
**A.** Its value is 0.

**Q.** What about the “Wheat plant response rating” value ([15]; 125 g ai/ha) of the same compound?
**A.** The value was 30.

**Q.** What about the “Barnyardgrass plant response rating” value ([16]; 31 g ai/ha) of the same compound?
**A.** The value was 40.

**Q.** And the “Barnyardgrass plant response rating” value ([16]; 125 g ai/ha)?
**A.** Its value is 90.

**Q.** What about the “Ragweed plant response rating” value ([17]; 31 g ai/ha) of the same compound?
**A.** Its value is 20.

**Q.** And the “Ragweed plant response rating” value ([17]; 125 g ai/ha)?
**A.** The value was 30.

**Q.** And the “Ryegrass, Italian plant response rating” value ([18]; 31 g ai/ha)?
**A.** The value was 20.

**Q.** And the “Ryegrass, Italian plant response rating” value ([18]; 125 g ai/ha)?
**A.** The value was 80.

**Q.** And the “Galium plant response rating” value ([19]; 31 g ai/ha)?
**A.** The value was 90.

**Q.** What about the “Galium plant response rating” value ([19]; 125 g ai/ha) of the same compound?
**A.** The value was 90.
